We go through 13 compounds from paper PMC5081515 (Scientific Reports, 2016).

The target in assay [1] is Human HGPRT. The arrangement: method as in Cesnek et al. 19; Keough et al. 18. The following applies: ref Cesnek et al. 19, Keough et al. 18; cited from earlier work.
For assay [2], the target named is T1, TbrHGPRT (Trypanosoma brucei brucei, UniProt Q07010). Put plainly: Inhibition studies, Ki determination.
A further assay has as its system TcrHGPRT. Also on record: method as in Canyuk et al. 43; Allen & Ullman 54. The following applies: cited from earlier work.
In assay [3] the test system is Human HGPRT. Also on record: method as in de Jersey et al. 10. The following applies: cited from earlier work.
Assay [4] has as its target T1, TbrHGPRT. Kind of assay: Kinetic constants of naturally occurring substrates, continuous spectrophotometric assay. It counts as biochemical. The arrangement: made in house; host or cells: E. coli BL-21 (DE3), pET-22b. As to the method: One unit of activity is defined as the number of μmol of purine base converted to its mononucleotide product per minute.
The kinetic constants were calculated using GraphPad Prism 6.0.

Assay [5] concerns the target T1, TbrHGPRT. Put plainly: Standard enzyme activity assay with ammonium sulphate added. It counts as biochemical. Also on record: made in house; host or cells: E. coli BL-21 (DE3), pET-22b. Conditions: 2M ammonium sulphate added to the cuvette.
Where [6] appears, read: ref Canyuk et al. 43, Allen & Ullman 54, read-out: Km.
Setting [7] is: ref Canyuk et al. 43, Allen & Ullman 54.
Setting [8] is: ref de Jersey et al. 10, read-out: Km.

What is called Ki is the equilibrium dissociation constant of an inhibitor or competing ligand from its target. Usually Km stands for the substrate concentration at which the rate is half of its maximum. For orientation: kcat means the number of substrate molecules converted per active site and unit of time at saturation. The term inhibition denotes the percentage by which the read-out fell short of the control.

Molecules are shown by their SMILES. Like-named read-outs stand apart in the source and are kept apart here.

T1 sequence (Q07010 whole entry): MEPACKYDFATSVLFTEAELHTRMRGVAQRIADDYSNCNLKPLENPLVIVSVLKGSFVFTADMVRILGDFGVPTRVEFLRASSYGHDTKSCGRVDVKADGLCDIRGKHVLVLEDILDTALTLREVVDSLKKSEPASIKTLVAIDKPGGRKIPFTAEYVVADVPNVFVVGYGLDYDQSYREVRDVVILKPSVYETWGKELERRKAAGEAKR

Turning to `Nc1nc2c(ncn2CCCCP(=O)(O)O)c(=O)[nH]1` [Compound 1], the figures for the Ki on Human HGPRT [1] and on TbrHGPRT [2] were 21 µM and 23.7 ± 0.3 µM, respectively.
In the case of `Nc1nc2c(ncn2CCCCCP(=O)(O)O)c(=O)[nH]1` [Compound 2], the values for the Ki at Human HGPRT [1] and at TbrHGPRT [2] were 0.5 µM and 2.3 ± 0.1 µM, respectively.
`Nc1nc2c(ncn2CCCCCCP(=O)(O)O)c(=O)[nH]1` [Compound 3]: the results for the Ki on Human HGPRT [1] and at TbrHGPRT [2] were 0.5 µM and 21.3 ± 0.4 µM, respectively.
Regarding `O=c1[nH]cnc2c1ncn2CCCP(=O)(O)O` [Compound 4], the Ki at Human HGPRT [1] and on TbrHGPRT [2] was greater than 100 µM throughout.
Consider `O=c1[nH]cnc2c1ncn2CCCCP(=O)(O)O` [Compound 5], for which the Ki is greater than 100 µM at Human HGPRT [1] and 58.6 ± 4 µM on TbrHGPRT [2].
As for `O=c1[nH]cnc2c1ncn2CCCCCP(=O)(O)O` [Compound 6], the Ki at Human HGPRT [1] is greater than 100 µM; at TbrHGPRT [2] it was 15.8 ± 1.8 µM.
On to `O=c1[nH]cnc2c1ncn2CCCCCCP(=O)(O)O` [Compound 7], for which the Ki at Human HGPRT [1] was 77 µM; on TbrHGPRT [2], greater than 100 µM.
Take `Nc1nc2c(ncn2[C@@H]2O[C@H](COP(=O)(O)O)[C@@H](O)[C@H]2O)c(=O)[nH]1` [GMP, reference compound]: the Ki at Human HGPRT [1] is 5.8 ± 0.2 µM; on TbrHGPRT [2] (0.03 M phosphate, […] MgCl2, 1 mM DTT, pH 7.4, 25 °C, guanine 40 μM, PRib-PP varied 20 to 630 μM), 30.5 ± 1.5 µM. For the same compound, the “Ki for GMP, fold lower than for IMP” value at TbrHGPRT [2] (TbrHGPRT) is reported as 2.5 fold. For the same compound, the “Ki for TbrHGPRT, fold higher than for human HGPRT” value at TbrHGPRT [2] (TbrHGPRT vs human HGPRT) was 5 fold.
On to `Nc1nc2nc[nH]c2c(=O)[nH]1` [Guanine], for which the Km was 9.9 ± 0.29 µM in the assay on TcrHGPRT (setting [6]) and 1.9 ± 0.4 µM in the assay on Human HGPRT [3] (setting [8]). In addition, the kcat is 41.2 ± 2.9 s⁻¹ with TcrHGPRT (setting [7]) and 8.2 ± 0.6 s⁻¹ with Human HGPRT [3] (ref de Jersey et al. 10).
On to `O=c1[nH]cnc2nc[nH]c12` [Hypoxanthine], for which the Km in the assay on TcrHGPRT (setting [6]) is 8.6 ± 1 µM; in the assay with Human HGPRT [3] (setting [8]) it was 3.4 ± 1 µM. Also, the kcat in the assay with TcrHGPRT (setting [7]) was 23 s⁻¹; with Human HGPRT [3] (ref de Jersey et al. 10), 5.2 ± 0.4 s⁻¹. In addition, at TbrHGPRT [4] (TbrHGPRT), the “Km, fold higher than for guanine” value came to 2 fold.
Turning to `O=P(O)(O)OC[C@H]1O[C@H](OP(=O)(O)OP(=O)(O)O)[C@H](O)[C@@H]1O` [PRib-PP], the results for the Km in the assay on TcrHGPRT (setting [6]) and in the assay with Human HGPRT [3] (setting [8]) were 32.4 ± 3.1 µM and 59.6 ± 6 µM, respectively.
Regarding `O=c1[nH]c(=O)c2nc[nH]c2[nH]1` [Xanthine], the Km entry in the assay with TcrHGPRT (setting [7]) was “No activity reported”; with Human HGPRT [3] (ref de Jersey et al. 10) it was “Not a substrate”; on TbrHGPRT [4] (0.03 M phosphate buffer, […] MgCl2, 1 mM DTT, pH 7.4, 25 °C, bases at 500 μM PRib-PP, PRib-PP at 40 μM guanine), “Weak activity”. Also, the kcat entry was “No activity reported” with TcrHGPRT (setting [7]); “Not a substrate” with Human HGPRT [3] (ref de Jersey et al. 10); “Weak activity” on TbrHGPRT [4] (0.03 M phosphate buffer, […] MgCl2, 1 mM DTT, pH 7.4, 25 °C). Moreover, the “activity as a substrate” value on TbrHGPRT [4] (TbrHGPRT) is “only very weak activity”.
In turn, `N.N.O=S(=O)(O)O` [sulphate, ammonium sulphate] showed an inhibition at TbrHGPRT [5] of 25%.
